Target: T1, recombinant human iNOS (hiNOS) (Homo sapiens, UniProt P35228)
T1 construct: gene NOS2; human iNOS cDNA in pEFIRES-P, overexpressed in HT1080 fibrosarcoma cells; post-mitochondrial supernatant, arginine removed with Dowex-50W; homodimer
Experiment: L-[U-14C]-arginine to L-[U-14C]-citrulline conversion assay
Assay type: biochemical
Details: 100 µM, test compound added simultaneously with L-[U-14C]-arginine
Text: L-[U-14C]-arginine to L-[U-14C]-citrulline conversion assay on recombinant human iNOS (hiNOS)

T1 sequence (P35228 whole entry): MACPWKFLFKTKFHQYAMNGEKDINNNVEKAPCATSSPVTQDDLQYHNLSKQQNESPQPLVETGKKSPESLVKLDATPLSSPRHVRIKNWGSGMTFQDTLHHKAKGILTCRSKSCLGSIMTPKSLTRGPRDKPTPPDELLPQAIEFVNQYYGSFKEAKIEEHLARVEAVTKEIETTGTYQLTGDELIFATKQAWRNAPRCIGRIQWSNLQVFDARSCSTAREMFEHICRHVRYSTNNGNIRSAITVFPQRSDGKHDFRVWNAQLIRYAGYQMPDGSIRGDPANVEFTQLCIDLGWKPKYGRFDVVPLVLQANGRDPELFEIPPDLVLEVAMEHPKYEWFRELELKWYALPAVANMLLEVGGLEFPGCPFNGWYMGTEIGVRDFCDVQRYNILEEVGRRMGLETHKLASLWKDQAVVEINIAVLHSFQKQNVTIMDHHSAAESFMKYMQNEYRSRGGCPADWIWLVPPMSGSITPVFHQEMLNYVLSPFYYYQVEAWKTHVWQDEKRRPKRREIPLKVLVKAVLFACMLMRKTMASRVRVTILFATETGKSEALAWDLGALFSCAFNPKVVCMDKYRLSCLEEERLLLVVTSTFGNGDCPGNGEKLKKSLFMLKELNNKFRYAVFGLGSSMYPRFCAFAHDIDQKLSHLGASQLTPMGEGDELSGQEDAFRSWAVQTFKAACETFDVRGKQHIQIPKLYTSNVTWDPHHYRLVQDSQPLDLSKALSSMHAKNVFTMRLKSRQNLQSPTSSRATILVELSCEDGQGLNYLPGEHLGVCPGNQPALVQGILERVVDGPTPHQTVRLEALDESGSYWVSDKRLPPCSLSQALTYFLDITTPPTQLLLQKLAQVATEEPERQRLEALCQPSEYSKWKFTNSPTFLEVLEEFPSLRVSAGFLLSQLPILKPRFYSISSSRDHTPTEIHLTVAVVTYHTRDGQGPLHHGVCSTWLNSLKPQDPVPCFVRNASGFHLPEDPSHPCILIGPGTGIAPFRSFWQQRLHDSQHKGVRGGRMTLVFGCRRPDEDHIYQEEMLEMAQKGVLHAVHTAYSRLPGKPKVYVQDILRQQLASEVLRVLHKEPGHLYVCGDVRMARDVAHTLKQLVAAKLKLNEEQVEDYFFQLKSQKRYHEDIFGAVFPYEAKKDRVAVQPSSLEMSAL

Row | Structure (SMILES) | % Stimulation of hiNOS activity ^a / t = 0 min ^b
1 | COC(=O)c1cc(CNC(N)=S)cs1 [compound 25, Methyl 4-(thioureidomethyl)thiophene-2-carboxylate] | +37 ± 27%
2 | COC(=O)c1ccc(CNC(N)=S)s1 [compound 13, Methyl 5-(thioureidomethyl)thiophene-2-carboxylate] | +62 ± 2%

Reference: publication PMC6257465, “Synthesis of N-(Methoxycarbonylthienylmethyl)thioureas and Evaluation of Their Interaction with Inducible and Neuronal Nitric Oxide Synthase” (Molecules, 2010)
